Target: α-amylase (EC 3.2.1.1)
Experiment: α-amylase activity kit, colorimetric at […] nm
Assay type: biochemical

Structure (SMILES) | IC50
O=C(/C=C/c1ccc(O)c(O)c1)O[C@@H]1C[C@@](O)(C(=O)O)C[C@@H](O)[C@@H]1O [neochlorogenic acid] | 230 µM
COc1cc(C(=O)O)ccc1O [vanillic acid] | 330 µM

Reference: publication PMC8919051, “Metabolome and Whole-Transcriptome Analyses Reveal the Molecular Mechanisms Underlying Hypoglycemic Nutrient Metabolites Biosynthesis in Cyclocarya paliurus Leaves During Different Harvest Stages” (Frontiers in Nutrition, 2022)
